Results: PubChem BioAssay (NCI)
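48-hour exposure; five concentrations; linearly interpolated endpoints. GI50 is the concentration that inhibits growth by half. TGI: concentration producing complete growth inhibition.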

What was measured:
Experiment in all cases: NCI tumour cell line growth inhibition, 48 h
SK-MEL-5 melanoma = system: SK-MEL-5 melanoma
MDA-MB-231 breast = system: MDA-MB-231 breast
OVCAR-3 ovarian = system: OVCAR-3 ovarian
NCI/ADR-RES ovarian = system: NCI/ADR-RES ovarian
SW-620 colon = system: SW-620 colon
OVCAR-8 ovarian = system: OVCAR-8 ovarian
SF-268 CNS = system: SF-268 CNS
CCRF-CEM leukemia = system: CCRF-CEM leukemia
SF-295 CNS = system: SF-295 CNS
SN12C renal = system: SN12C renal
UO-31 renal = system: UO-31 renal
TK-10 renal = system: TK-10 renal
M14 melanoma = system: M14 melanoma
EKVX NSCLC = system: EKVX NSCLC
RXF 393 renal = system: RXF 393 renal
HOP-92 NSCLC = system: HOP-92 NSCLC
UACC-62 melanoma = system: UACC-62 melanoma
K-562 leukemia = system: K-562 leukemia
LOX IMVI melanoma = system: LOX IMVI melanoma
786-0 renal = system: 786-0 renal
DU-145 prostate = system: DU-145 prostate
HCC-2998 colon = system: HCC-2998 colon
KM12 colon = system: KM12 colon
CAKI-1 renal = system: CAKI-1 renal
SR leukemia = system: SR leukemia
MCF7 breast = system: MCF7 breast
SK-OV-3 ovarian = system: SK-OV-3 ovarian
HS 578T breast = system: HS 578T breast
PC-3 prostate = system: PC-3 prostate
HT29 colon = system: HT29 colon
SF-539 CNS = system: SF-539 CNS
NCI-H522 lung = system: NCI-H522 lung
MALME-3M melanoma = system: MALME-3M melanoma
HCT-15 colon = system: HCT-15 colon
BT-549 breast = system: BT-549 breast
UACC-257 melanoma = system: UACC-257 melanoma
U251 CNS = system: U251 CNS
NCI-H226 lung = system: NCI-H226 lung
OVCAR-5 ovarian = system: OVCAR-5 ovarian
MDA-MB-435 = system: MDA-MB-435
A549 NSCLC = system: A549 NSCLC
HOP-62 NSCLC = system: HOP-62 NSCLC
HL-60(TB) leukemia = system: HL-60(TB) leukemia
COLO 205 colon = system: COLO 205 colon
RPMI-8226 leukemia = system: RPMI-8226 leukemia
SNB-75 CNS = system: SNB-75 CNS
T-47D breast = system: T-47D breast
SK-MEL-2 melanoma = system: SK-MEL-2 melanoma
NCI-H460 lung = system: NCI-H460 lung
OVCAR-4 ovarian = system: OVCAR-4 ovarian
A498 renal = system: A498 renal
SNB-19 CNS = system: SNB-19 CNS
SK-MEL-28 melanoma = system: SK-MEL-28 melanoma
IGROV1 ovarian = system: IGROV1 ovarian
NCI-H23 lung = system: NCI-H23 lung
ACHN renal = system: ACHN renal
HCT-116 colon = system: HCT-116 colon
MOLT-4 leukemia = system: MOLT-4 leukemia

## Cc1ccc(C2=C(c3ccc(C)cc3)C3(c4ccc(C)cc4)C4C(=O)OC(=O)C4C2(c2ccc(C)cc2)S3=O)cc1 (stereo unspecified)
SK-MEL-5 melanoma
  GI50: 21.3 µM
  TGI: 57.6 µM
MDA-MB-231 breast
  GI50: 15.6 µM
  TGI: 45.6 µM
OVCAR-3 ovarian
  GI50: 15.5 µM
  TGI: 39.4 µM
NCI/ADR-RES ovarian
  GI50: 46.4 µM
  TGI: > 100 µM
SW-620 colon
  GI50: 38.1 µM
  TGI: > 100 µM
OVCAR-8 ovarian
  GI50: 25.7 µM
  TGI: > 100 µM
SF-268 CNS
  GI50: 38.5 µM
  TGI: > 100 µM
CCRF-CEM leukemia
  GI50: 25.2 µM
  TGI: > 100 µM
SF-295 CNS
  GI50: 13.1 µM
  TGI: 37.7 µM
SN12C renal
  GI50: 25.1 µM
  TGI: 87.9 µM
UO-31 renal
  GI50: 34.3 µM
  TGI: > 100 µM
TK-10 renal
  GI50: 38.8 µM
  TGI: > 100 µM
M14 melanoma
  GI50: 9.7 µM
  TGI: 32.8 µM
EKVX NSCLC
  GI50: 42 µM
  TGI: > 100 µM
RXF 393 renal
  GI50: 13.9 µM
  TGI: 30.4 µM
HOP-92 NSCLC
  GI50: 25.3 µM
  TGI: 89.8 µM
UACC-62 melanoma
  GI50: 3.57 µM
  TGI: 19.6 µM
K-562 leukemia
  GI50: 27.7 µM
  TGI: > 100 µM
LOX IMVI melanoma
  GI50: 18.5 µM
  TGI: 73.7 µM
786-0 renal
  GI50: 6.91 µM
  TGI: 27.7 µM
DU-145 prostate
  GI50: 47.6 µM
  TGI: > 100 µM
HCC-2998 colon
  GI50: 21.5 µM
  TGI: 55.5 µM
KM12 colon
  GI50: 22.9 µM
  TGI: 76.1 µM
CAKI-1 renal
  GI50: 26.3 µM
  TGI: > 100 µM
SR leukemia
  GI50: 25.9 µM
  TGI: > 100 µM
MCF7 breast
  GI50: 29.2 µM
  TGI: > 100 µM
SK-OV-3 ovarian
  GI50: 26.8 µM
  TGI: 98.7 µM
HS 578T breast
  GI50: 21.3 µM
  TGI: > 100 µM
PC-3 prostate
  GI50: 25 µM
  TGI: > 100 µM
HT29 colon
  GI50: 25.3 µM
  TGI: > 100 µM
SF-539 CNS
  GI50: 6.3 µM
  TGI: 31.9 µM
NCI-H522 lung
  GI50: 34 µM
  TGI: > 100 µM
MALME-3M melanoma
  GI50: 27.9 µM
  TGI: 84 µM
HCT-15 colon
  GI50: 33.5 µM
  TGI: > 100 µM
BT-549 breast
  GI50: 23.9 µM
  TGI: > 100 µM
UACC-257 melanoma
  GI50: > 100 µM
  TGI: > 100 µM
U251 CNS
  GI50: 6.31 µM
  TGI: 24.9 µM
NCI-H226 lung
  GI50: 11 µM
  TGI: 48.3 µM
OVCAR-5 ovarian
  GI50: 96.4 µM
  TGI: > 100 µM
MDA-MB-435
  GI50: 17.5 µM
  TGI: 63.7 µM
A549 NSCLC
  GI50: 32 µM
  TGI: > 100 µM
HOP-62 NSCLC
  GI50: 16.4 µM
  TGI: 42.5 µM
HL-60(TB) leukemia
  GI50: 25.5 µM
  TGI: > 100 µM
COLO 205 colon
  GI50: 51.2 µM
  TGI: > 100 µM
RPMI-8226 leukemia
  GI50: 21.2 µM
  TGI: 89.5 µM
SNB-75 CNS
  GI50: 15.3 µM
  TGI: 36.8 µM
T-47D breast
  GI50: > 100 µM
  TGI: > 100 µM
SK-MEL-2 melanoma
  GI50: 16.2 µM
  TGI: 78.8 µM
NCI-H460 lung
  GI50: 24.9 µM
  TGI: > 100 µM
OVCAR-4 ovarian
  GI50: 59.6 µM
  TGI: > 100 µM
A498 renal
  GI50: 21.9 µM
  TGI: 63.4 µM
SNB-19 CNS
  GI50: 20.9 µM
  TGI: > 100 µM
SK-MEL-28 melanoma
  GI50: 28.8 µM
  TGI: 96.1 µM
IGROV1 ovarian
  GI50: 25.7 µM
  TGI: > 100 µM
NCI-H23 lung
  GI50: 18.2 µM
  TGI: 41.8 µM
ACHN renal
  GI50: 15.8 µM
  TGI: 83.3 µM
HCT-116 colon
  GI50: 23.7 µM
  TGI: 92.5 µM

## COc1cc(C2c3cc4c(cc3OC(C)(N3CCCC3)C2C)OCO4)cc(OC)c1OC (stereo unspecified)
SK-MEL-5 melanoma
  TGI: 1.58 µM
MDA-MB-231 breast
  TGI: 2.42 µM
OVCAR-3 ovarian
  TGI: 0.528 µM
NCI/ADR-RES ovarian
  TGI: 0.522 µM
SW-620 colon
  TGI: > 100 µM
SF-268 CNS
  TGI: > 92.9 µM
CCRF-CEM leukemia
  TGI: > 50.3 µM
SF-295 CNS
  TGI: 0.661 µM
SN12C renal
  TGI: 30.8 µM
UO-31 renal
  TGI: 57 µM
MOLT-4 leukemia
  TGI: 10.6 µM
TK-10 renal
  TGI: > 67.1 µM
M14 melanoma
  TGI: 4.81 µM
EKVX NSCLC
  TGI: > 50.8 µM
RXF 393 renal
  TGI: 2.93 µM
HOP-92 NSCLC
  TGI: 33.6 µM
UACC-62 melanoma
  TGI: 19.1 µM
K-562 leukemia
  TGI: 0.908 µM
LOX IMVI melanoma
  TGI: > 31.4 µM
786-0 renal
  TGI: > 100 µM
DU-145 prostate
  TGI: 2.57 µM
HCC-2998 colon
  TGI: 2.57 µM
KM12 colon
  TGI: 9.45 µM
CAKI-1 renal
  TGI: > 20.2 µM
SR leukemia
  TGI: 9.62 µM
MCF7 breast
  TGI: 16.3 µM
SK-OV-3 ovarian
  TGI: > 62.6 µM
HS 578T breast
  TGI: 0.721 µM
PC-3 prostate
  TGI: > 100 µM
HT29 colon
  TGI: 0.836 µM
SF-539 CNS
  TGI: 0.716 µM
NCI-H522 lung
  TGI: 0.612 µM
MALME-3M melanoma
  TGI: > 55.2 µM
HCT-15 colon
  TGI: 11.3 µM
BT-549 breast
  TGI: 12.2 µM
UACC-257 melanoma
  TGI: > 100 µM
U251 CNS
  TGI: 23.3 µM
NCI-H226 lung
  TGI: 2.05 µM
OVCAR-5 ovarian
  TGI: > 20.5 µM
MDA-MB-435
  TGI: 0.377 µM
A549 NSCLC
  TGI: > 100 µM
HOP-62 NSCLC
  TGI: 66.8 µM
HL-60(TB) leukemia
  TGI: 0.685 µM
COLO 205 colon
  TGI: 0.528 µM
RPMI-8226 leukemia
  TGI: 11.7 µM
SNB-75 CNS
  TGI: 0.65 µM
T-47D breast
  TGI: > 100 µM
SK-MEL-2 melanoma
  TGI: 52.1 µM
NCI-H460 lung
  TGI: 19.2 µM
OVCAR-4 ovarian
  TGI: > 100 µM
A498 renal
  TGI: 5.7 µM
SNB-19 CNS
  TGI: > 100 µM
SK-MEL-28 melanoma
  TGI: > 100 µM
IGROV1 ovarian
  TGI: 46.7 µM
NCI-H23 lung
  TGI: 6.32 µM
ACHN renal
  TGI: > 79.9 µM
HCT-116 colon
  TGI: 16.5 µM
